Laboratory results published in PMC6327044, “A chemical biology screen identifies a vulnerability of neuroendocrine cancer cells to SQLE inhibition” (Nature Communications, 2019).

Assays:
Assay in all cases: cells
Design in all cases: species or system panel of 482 human cancer cell lines; ATPLite luminescence growth inhibition after treatment, nine-point dilution curve, 482 cancer cell lines, 384-well
Conditions in all cases: 72 h, recommended growth medium
[1] = tested on: KMS20_HAEMATOPOIETIC_AND_LYMPHOID_TISSUE
Summary of the method: (§1)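 Growth inhibition was measured across a panel of 482 cancer cell lines. Cells were plated at 500 cells per well in recommended growth media in black, tissue culture treated 384-well plates, centrifuged to equilibrate, and incubated 24 h before dosing. Compounds were tested as nine-point dilution curves for 72 h, with viability read by ATPLite luminescence relative to DMSO-treated controls.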

[2] = tested on: NCIH1568_LUNG
Summary of the method: as §1

[3] = tested on: KURAMOCHI_OVARY
Summary of the method: as §1

[4] = tested on: SUDHL6_HAEMATOPOIETIC_AND_LYMPHOID_TISSUE
Summary of the method: as §1

[5] = tested on: A427_LUNG
Summary of the method: as §1

[6] = tested on: HCC1195_LUNG
Summary of the method: as §1

[7] = tested on: TE14_OESOPHAGUS
Summary of the method: as §1

[8] = tested on: HT115_LARGE_INTESTINE
Summary of the method: as §1

[9] = tested on: HCC70_BREAST
Summary of the method: as §1

[10] = tested on: SUDHL5_HAEMATOPOIETIC_AND_LYMPHOID_TISSUE
Summary of the method: as §1

[11] = tested on: EVSAT_BREAST
Summary of the method: as §1

[12] = tested on: 2313287_STOMACH
Summary of the method: as §1

GI50 [4]: 0.0789 µM | GI50 [6]: 2740 µM | GI50 [10]: 0.0255 µM
SMILES: CCN(C/C=C/C#CC(C)(C)C)Cc1cccc(OCc2cc(-c3ccsc3)cs2)c1 [NB-598]
GI50 [1]: 6.54 µM | GI50 [2]: 7.98 µM | GI50 [3]: 52 µM | GI50 [5]: 0.00555 µM | GI50 [7]: 164 µM | GI50 [8]: 2.72 µM | GI50 [9]: 16.3 µM | GI50 [11]: 32.4 µM | GI50 [12]: 2.19 µM
